How the values were obtained:
HIV-IIIb = experiment: Test A: Antiviral assay in MT4 cells; format: cell-based, HIV-1; conditions: Human immunodeficiency virus 1, IIIB, MT4, 120 h, read-out: % inhibition at 2 μM, percent inhibition of virus-induced cell killing, from dose response curve at 2 uM drug; MT-4 cells infected with HIV-IIIb, 5 days, CellTiter-Glo
in vitro = conditions: human, uninfected MT-4 cells, CC50 (nM), same protocol as Test A, CellTiter-Glo
Method in brief: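 Cytoprotection read-out: CellTiter-Glo chemiluminescence after 5 days at 37 °C of HIV-IIIb-infected MT-4 cells (m.o.i. 0.003) with compound in 10-point 3-fold dilutions, quadruplicate, 10% FBS. Cytotoxicity (CC50) measured identically without virus.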

| SMILES | inhibition at 2 µM (HIV-IIIb) [%] | CC50 at 5 days (in vitro) [nM] |
| --- | --- | --- |
| NC(=O)c1cc(-c2cccnc2[C@H](Cc2cc(F)cc(F)c2)NC(=O)Cn2nc(C(F)(F)F)c3c2CCSC3)ccc1F [Example 232, (S)-5-(2-(2-(3,5-difluorophenyl)-1-(2-(3-(trifluoromethyl)-6,7-dihydrothiopyrano[4,3-c]pyrazol-1(4H)-yl)acetamido)ethyl)pyridin-3-yl)-2-fluorobenzamide] | 61 | 18700 |
| NC(=O)c1cc(-c2cccnc2[C@H](Cc2cc(F)cc(F)c2)NC(=O)Cn2nc(C(F)F)c3c2C(=O)C2CC32)ccc1F (stereo partly drawn) [Example 233B, 5-(2-((1S)-1-(2-(3-(difluoromethyl)-5-oxo-3b,4,4a,5-tetrahydro-1H-cyclopropa[3,4]cyclopenta[1,2-c]pyrazol-1-yl)acetamido)-2-(3,5-difluorophenyl)ethyl)pyridin-3-yl)-2-fluorobenzamide] | 5 | 32200 |
| CC1Cc2c(C(F)(F)F)nn(CC(=O)N[C@@H](Cc3cc(F)cc(F)c3)c3ncccc3-c3ccc(F)c(C(N)=O)c3)c2C1 (stereo partly drawn) [Example 234, 5-(2-((1S)-2-(3,5-difluorophenyl)-1-(2-(5-methyl-3-(trifluoromethyl)-5,6-dihydrocyclopenta[c]pyrazol-1(4H)-yl)acetamido)ethyl)pyridin-3-yl)-2-fluorobenzamide] | 73 | 15900 |
| CN1Cc2c(C(F)(F)F)nn(CC(=O)N[C@@H](Cc3cc(F)cc(F)c3)c3ncccc3-c3ccc(F)c(C(N)=O)c3)c2C1 [Example 235, (S)-5-(2-(2-(3,5-difluorophenyl)-1-(2-(5-methyl-3-(trifluoromethyl)-5,6-dihydropyrrolo[3,4-c]pyrazol-1(4H)-yl)acetamido)ethyl)pyridin-3-yl)-2-fluorobenzamide] | 12 | > 53200 |
| CC(C)c1cc(C(F)(F)F)n(CC(=O)N[C@@H](Cc2cc(F)cc(F)c2)c2ncccc2-c2ccc(F)c(C(N)=O)c2)n1 [Example 236D, (S)-5-(2-(2-(3,5-difluorophenyl)-1-(2-(3-isopropyl-5-(trifluoromethyl)-1H-pyrazol-1-yl)acetamido)ethyl)pyridin-3-yl)-2-fluorobenzamide] | 15 | 25600 |
| NC(=O)c1cc(-c2cccnc2[C@H](Cc2cc(F)cc(F)c2)NC(=O)Cn2nc(C(F)(F)F)c3c2CC(=O)C3)ccc1F [Example 237, (S)-5-(2-(2-(3,5-difluorophenyl)-1-(2-(5-oxo-3-(trifluoromethyl)-5,6-dihydrocyclopenta[c]pyrazol-1(4H)-yl)acetamido)ethyl)pyridin-3-yl)-2-fluorobenzamide] | 1 | 38200 |
| CC(C)(C)c1cc(C(F)(F)F)n(CC(=O)N[C@@H](Cc2cc(F)cc(F)c2)c2ncccc2-c2ccc(F)c(C(N)=O)c2)n1 [Example 238E, (S)-5-(2-(1-(2-(3-(tert-butyl)-5-(trifluoromethyl)-1H-pyrazol-1-yl)acetamido)-2-(3,5-difluorophenyl)ethyl)pyridin-3-yl)-2-fluorobenzamide] | 12 | 17000 |
| NC(=O)c1cc(-c2cccnc2[C@H](Cc2cc(F)cc(F)c2)NC(=O)Cn2nc(C(F)(F)F)c3c2CC(F)(F)C3)ccc1F [Example 239, (S)-5-(2-(1-(2-(5,5-difluoro-3-(trifluoromethyl)-5,6-dihydrocyclopenta[c]pyrazol-1(4H)-yl)acetamido)-2-(3,5-difluorophenyl)ethyl)pyridin-3-yl)-2-fluorobenzamide] | 18 | 19400 |
| NC(=O)c1cc(-c2cccnc2[C@H](Cc2cc(F)cc(F)c2)NC(=O)Cn2nc(C(F)F)c3c2CC(F)(F)C3)ccc1F [Example 241D, (S)-5-(2-(1-(2-(3-(difluoromethyl)-5,5-difluoro-5,6-dihydrocyclopenta[c]pyrazol-1(4H)-yl)acetamido)-2-(3,5-difluorophenyl)ethyl)pyridin-3-yl)-2-fluorobenzamide] | 78 | 25400 |
| N#Cc1nn(CC(=O)N[C@@H](Cc2cc(F)cc(F)c2)c2ncccc2-c2ccc(F)c(C(N)=O)c2)c2c1C1CC1C2 (stereo partly drawn) [Example 242D, 5-(2-((1S)-1-(2-(3-cyano-3b,4,4a,5-tetrahydro-1H-cyclopropa[3,4]cyclopenta[1,2-c]pyrazol-1-yl)acetamido)-2-(3,5-difluorophenyl)ethyl)pyridin-3-yl)-2-fluorobenzamide] | 97 | 25500 |
| NC(=O)c1cc(-c2cccnc2[C@H](Cc2cc(F)cc(F)c2)NC(=O)Cn2nc3c(c2C(F)F)C2CC2C3O)ccc1F (stereo partly drawn) [Example 243, 5-(2-((1S)-1-(2-(3-(difluoromethyl)-5-hydroxy-3b,4,4a,5-tetrahydro-2H-cyclopropa[3,4]cyclopenta[1,2-c]pyrazol-2-yl)acetamido)-2-(3,5-difluorophenyl)ethyl)pyridin-3-yl)-2-fluorobenzamide] | 33 | > 53200 |
| CC(C)(C)c1cc(C(F)(F)F)nn1CC(=O)N[C@@H](Cc1cc(F)cc(F)c1)c1ncccc1-c1ccc(F)c(C(N)=O)c1 [Example 244B, (S)-5-(2-(1-(2-(5-(tert-butyl)-3-(trifluoromethyl)-1H-pyrazol-1-yl)acetamido)-2-(3,5-difluorophenyl)ethyl)pyridin-3-yl)-2-fluorobenzamide] | 0 | 16400 |
| NC(=O)c1cccc(-c2cccnc2[C@H](Cc2cc(F)cc(Cl)c2)NC(=O)Cc2c[nH]c3ccc(O)cc23)c1 [Example 245F, (S)-3-(2-(2-(3-chloro-5-fluorophenyl)-1-(2-(5-hydroxy-1H-indol-3-yl)acetamido)ethyl)pyridin-3-yl)benzamide] | 71 | 30300 |
| NC(=O)c1cc(-c2cccnc2[C@H](Cc2cc(F)cc(F)c2)NC(=O)CC2C(=O)Nc3cc(F)ccc32)ccc1F (stereo partly drawn) [Example 246, 5-(2-((1S)-2-(3,5-difluorophenyl)-1-(2-(6-fluoro-2-oxoindolin-3-yl)acetamido)ethyl)pyridin-3-yl)-2-fluorobenzamide] | 1 | 47900 |
| CCOc1ccc(-c2cccnc2[C@H](Cc2cc(F)cc(F)c2)NC(=O)Cn2nc(C(F)F)c3c2C(F)(F)C2CC32)cc1 (stereo partly drawn) [Example 247, 2-(3-(difluoromethyl)-5,5-difluoro-3b,4,4a,5-tetrahydro-1H-cyclopropa[3,4]cyclopenta[1,2-c]pyrazol-1-yl)-N—((S)-2-(3,5-difluorophenyl)-1-(3-(4-ethoxyphenyl)pyridin-2-yl)ethyl)acetamide] | 39 | 26300 |
| NC(=O)c1cc(-c2cccnc2[C@H](Cc2cc(F)cc(F)c2)NC(=O)Cn2nc(C(F)(F)F)c3c2CNC3)ccc1F [Example 251, (S)-5-(2-(2-(3,5-difluorophenyl)-1-(2-(3-(trifluoromethyl)-5,6-dihydropyrrolo[3,4-c]pyrazol-1(4H)-yl)acetamido)ethyl)pyridin-3-yl)-2-fluorobenzamide] | 1 | > 53200 |
| CC(C)c1cc(C(F)(F)F)nn1CC(=O)N[C@@H](Cc1cc(F)cc(F)c1)c1ncccc1-c1ccc(F)c(C(N)=O)c1 [Example 252, (S)-5-(2-(2-(3,5-difluorophenyl)-1-(2-(5-isopropyl-3-(trifluoromethyl)-1H-pyrazol-1-yl)acetamido)ethyl)pyridin-3-yl)-2-fluorobenzamide] | 18 | 19200 |
| NC(=O)c1cc(-c2cccnc2[C@H](Cc2cccc(F)c2)NC(=O)CC2C(=O)Nc3ccc(F)cc32)ccc1F (stereo partly drawn) [Example 253, 2-fluoro-5-(2-((1S)-1-(2-(5-fluoro-2-oxoindolin-3-yl)acetamido)-2-(3-fluorophenyl)ethyl)pyridin-3-yl)benzamide] | 27 | > 53200 |
| N#Cc1nn(CC(=O)N[C@@H](Cc2cc(F)cc(F)c2)c2ncccc2-c2ccc(F)c(C(N)=O)c2)c2c1C1CC1C2(F)F (stereo partly drawn) [Example 254, 5-(2-((1S)-1-(2-(3-cyano-5,5-difluoro-3b,4,4a,5-tetrahydro-1H-cyclopropa[3,4]cyclopenta[1,2-c]pyrazol-1-yl)acetamido)-2-(3,5-difluorophenyl)ethyl)pyridin-3-yl)-2-fluorobenzamide] | 91 | 16600 |
| Cc1ccc2c(c1)NC(=O)C2CC(=O)N[C@@H](Cc1cc(F)cc(F)c1)c1ncccc1-c1ccc(F)c(C(N)=O)c1 (stereo partly drawn) [Example 255, 5-(2-((1S)-2-(3,5-difluorophenyl)-1-(2-(6-methyl-2-oxoindolin-3-yl)acetamido)ethyl)pyridin-3-yl)-2-fluorobenzamide] | 1 | > 53200 |
| COc1ccc2c(c1)NC(=O)C2CC(=O)N[C@@H](Cc1cc(F)cc(F)c1)c1ncccc1-c1ccc(F)c(C(N)=O)c1 (stereo partly drawn) [Example 256, 5-(2-((1S)-2-(3,5-difluorophenyl)-1-(2-(6-methoxy-2-oxoindolin-3-yl)acetamido)ethyl)pyridin-3-yl)-2-fluorobenzamide] | 15 | > 53200 |
| NC(=O)c1cc(-c2cccnc2[C@H](Cc2cccc(F)c2)NC(=O)Cc2cc(=O)[nH]c3ccccc23)ccc1F [Example 257, (S)-2-fluoro-5-(2-(2-(3-fluorophenyl)-1-(2-(2-oxo-1,2-dihydroquinolin-4-yl)acetamido)ethyl)pyridin-3-yl)benzamide] | 7 | > 53200 |
| NC(=O)c1cc(-c2cccnc2[C@H](Cc2cc(F)cc(F)c2)NC(=O)Cn2nc(C(F)(F)F)c3c2COC3)ccc1F [Example 258, (S)-5-(2-(2-(3,5-difluorophenyl)-1-(2-(3-(trifluoromethyl)-4,6-dihydro-1H-furo[3,4-c]pyrazol-1-yl)acetamido)ethyl)pyridin-3-yl)-2-fluorobenzamide] | 8 | > 53200 |
